Assays:
[1] = target: T1, Thromboxane A2 receptor (Homo sapiens, UniProt P21731); assay: In vitro inhibitory concentration of compound against thromboxane A2 receptor
T1 sequence (P21731 whole entry): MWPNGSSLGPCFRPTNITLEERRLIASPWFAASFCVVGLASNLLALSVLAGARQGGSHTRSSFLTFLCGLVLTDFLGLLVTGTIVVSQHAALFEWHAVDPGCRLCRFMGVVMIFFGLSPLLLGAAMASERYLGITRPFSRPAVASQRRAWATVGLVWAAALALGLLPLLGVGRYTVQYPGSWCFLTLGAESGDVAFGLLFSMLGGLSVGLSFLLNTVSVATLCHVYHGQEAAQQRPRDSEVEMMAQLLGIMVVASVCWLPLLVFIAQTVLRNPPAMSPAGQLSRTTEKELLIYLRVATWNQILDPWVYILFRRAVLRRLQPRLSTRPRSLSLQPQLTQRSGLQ

[2] = target: T2, Thromboxane-A synthase (Homo sapiens) (UniProt P24557); assay: Percent inhibition against thromboxane A2 synthase by the compound at a concentration of 10e-6 M
T2 sequence (whole entry): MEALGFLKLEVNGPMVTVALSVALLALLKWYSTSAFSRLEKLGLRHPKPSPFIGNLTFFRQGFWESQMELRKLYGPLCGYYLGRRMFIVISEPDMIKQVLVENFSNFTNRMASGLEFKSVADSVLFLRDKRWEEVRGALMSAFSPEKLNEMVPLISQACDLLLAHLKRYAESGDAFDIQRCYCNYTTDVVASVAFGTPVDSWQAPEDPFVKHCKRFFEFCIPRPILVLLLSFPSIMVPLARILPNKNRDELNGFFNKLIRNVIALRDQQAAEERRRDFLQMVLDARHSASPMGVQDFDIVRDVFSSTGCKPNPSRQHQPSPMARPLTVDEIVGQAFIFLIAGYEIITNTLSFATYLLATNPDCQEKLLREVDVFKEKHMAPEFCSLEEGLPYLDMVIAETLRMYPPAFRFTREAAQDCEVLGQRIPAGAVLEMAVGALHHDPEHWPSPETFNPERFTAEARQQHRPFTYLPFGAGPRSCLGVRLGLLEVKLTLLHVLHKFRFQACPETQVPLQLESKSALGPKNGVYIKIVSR

Compound	IC50 [1]	inhibition [2]
CC(C)(C)/N=C(\NC#N)Nc1cccc(/C(=C/CCCC(=O)O)c2cccnc2)c1	11 nM	–
CCCCCNC(=O)NS(=O)(=O)c1cc([N+](=O)[O-])ccc1NC1CCCCC1	–	97.4%

From ChEMBL document CHEMBL1134019, “Structure determination and comparison of BM567, a sulfonylurea, with terbogrel, two compounds with dual action, thromboxane receptor antagonism and thromboxane synthase inhibition” (Bioorg Med Chem Lett, 2001)
